We go through 26 molecules from PubChem BioAssay (NCI).

Some test systems named below: HCT-15 colon; IGROV1 ovarian; SW-620 colon; HCC-2998 colon; MOLT-4 leukemia; CAKI-1 renal; NCI-H522 lung; MALME-3M melanoma.
Holding throughout (assay): NCI anticancer screen, dose series, 48 h

Molecules are shown by their SMILES.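 Where inhibition never reached the appropriate level, the endpoint shown equals the highest concentration tested. Otherwise, values were interpolated linearly from a five-concentration, 48-hour dose response in 96-well plates. The concentration for full growth arrest is given as TGI.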

On to `COc1ccc(-c2oc3cc(O)c(OC)c(O)c3c(=O)c2OC2OC(CO)C(O)C(O)C2O)cc1` (stereo unspecified), for which the TGI in the test with HCT-15 colon, in the test with IGROV1 ovarian, with SW-620 colon, in the test with HCC-2998 colon and in the test on MOLT-4 leukemia was greater than 100 µM throughout.
For the molecule `S=c1[nH]nc(COc2ccc(Cl)cc2)o1`, the TGI with HCT-15 colon is 98.6 µM; in the test on IGROV1 ovarian, greater than 100 µM; in the test with SW-620 colon it was 29.8 µM; with HCC-2998 colon, greater than 100 µM; in the test with CAKI-1 renal it was greater than 100 µM; with NCI-H522 lung it was greater than 100 µM. Also, the TGI with MALME-3M melanoma and in the test on MOLT-4 leukemia was greater than 100 µM each time.
Consider `CCCCN(CCCC)C(=O)C(=O)CC(=O)c1ccc(Br)cc1`, for which the TGI in the test on HCT-15 colon, in the test on IGROV1 ovarian, in the test on SW-620 colon, in the test on HCC-2998 colon, in the test on CAKI-1 renal and in the test on NCI-H522 lung was greater than 100 µM throughout. The TGI in the test with MALME-3M melanoma and in the test with MOLT-4 leukemia was greater than 100 µM each time.
Consider `Cc1cc(Br)cc(C)c1NC(=O)C(=O)CC(=O)c1sc(-n2nc(-c3ccccc3)cc2-c2ccccc2)nc1C`, for which the TGI with HCT-15 colon, in the test on IGROV1 ovarian, in the test on SW-620 colon, in the test with HCC-2998 colon, in the test on CAKI-1 renal and with NCI-H522 lung was greater than 100 µM throughout. The TGI with MALME-3M melanoma and in the test on MOLT-4 leukemia was greater than 100 µM in each case.
Regarding `N[C@H]1C2C3CC4C5CC(C42)C1(c1ccccc1)C53` (stereo partly specified), the TGI in the test with HCT-15 colon, with IGROV1 ovarian, with SW-620 colon, with HCC-2998 colon, with CAKI-1 renal and in the test on NCI-H522 lung was greater than 100 µM each time. In addition, the TGI in the test with MALME-3M melanoma and with MOLT-4 leukemia was greater than 100 µM throughout.
For `COC1C=C(Nc2cccc(Cl)c2)C(=O)C1` (stereo unspecified), the TGI in the test on IGROV1 ovarian, with SW-620 colon, in the test with HCC-2998 colon, in the test with CAKI-1 renal, with NCI-H522 lung and in the test with MALME-3M melanoma was greater than 100 µM each time. The same molecule had a TGI in the test with MOLT-4 leukemia greater than 100 µM.
In the case of `CC1=C(C(=O)Nc2ccccc2)C(c2ccc3c(c2)OCO3)C(C(=O)Nc2ccccc2)=C(C)N1`, the TGI in the test with HCT-15 colon is greater than 100 µM; in the test with IGROV1 ovarian it was greater than 100 µM; in the test on SW-620 colon, 12.3 µM; in the test with HCC-2998 colon, greater than 100 µM; in the test with CAKI-1 renal, greater than 100 µM; in the test with NCI-H522 lung, 73.3 µM. Moreover, the figures for the TGI in the test with MALME-3M melanoma and with MOLT-4 leukemia were greater than 100 µM and 82 µM, respectively.
In the case of `C/C(=N\NC(=S)Nc1ccc(C(=O)O)cc1)c1ccccn1`, the TGI in the test with HCT-15 colon is greater than 100 µM; in the test with IGROV1 ovarian, 85.8 µM; in the test on SW-620 colon it was 39.1 µM; in the test with HCC-2998 colon, 32.7 µM; in the test on CAKI-1 renal, 80.5 µM; with MALME-3M melanoma, 35.1 µM. In the test with MOLT-4 leukemia, this molecule yielded a TGI greater than 100 µM.
Turning to `CCOP(=O)(OCC)C1C(=O)O[C@H]2CCCC[C@@H]12` (stereo partly specified), the TGI in the test on HCT-15 colon, in the test on IGROV1 ovarian, in the test on SW-620 colon, in the test with HCC-2998 colon, with CAKI-1 renal and in the test with MALME-3M melanoma was greater than 100 µM throughout. For the same molecule, in the test on MOLT-4 leukemia, the TGI was greater than 100 µM.
For `O=[N+]([O-])c1ccc(-c2ccc(/C=N/n3c(-c4ccc(Cl)cc4)n[nH]c3=S)o2)cc1`, the TGI with HCT-15 colon is greater than 100 µM; with IGROV1 ovarian it was greater than 100 µM; in the test with SW-620 colon it was greater than 68.5 µM; in the test with HCC-2998 colon, greater than 100 µM; with CAKI-1 renal it was greater than 90.1 µM; with NCI-H522 lung, greater than 100 µM. The TGI in the test on MALME-3M melanoma is 43.1 µM; in the test on MOLT-4 leukemia it was greater than 100 µM.
Regarding `Cc1cc(C)nc(NS(=O)(=O)c2ccc(Nc3c4ccccc4nc4c(C(=O)Nc5ccc(S(N)(=O)=O)cc5)cccc34)cc2)n1`, the TGI in the test with HCT-15 colon, with IGROV1 ovarian, with SW-620 colon, in the test on CAKI-1 renal, in the test on NCI-H522 lung and in the test with MALME-3M melanoma was greater than 100 µM each time. The molecule also gave a TGI in the test with MOLT-4 leukemia greater than 100 µM.
As for `CC1=C(C(=O)Nc2ccc([N+](=O)[O-])cc2)C(c2ccco2)C(C(=O)Nc2ccc([N+](=O)[O-])cc2)=C(C)N1`, the TGI with IGROV1 ovarian is greater than 100 µM; with SW-620 colon it was greater than 100 µM; with HCC-2998 colon, 47.9 µM; in the test with CAKI-1 renal, 90.1 µM; with NCI-H522 lung, 64.3 µM; in the test on MALME-3M melanoma, 55.1 µM. In the test with MOLT-4 leukemia, the TGI came out at 52.5 µM.
Consider `O/N=C1/C(=C/c2ccc(F)cc2)CCCC1C(NO)c1ccc(F)cc1` (stereo unspecified), for which the TGI was greater than 100 µM with HCT-15 colon; greater than 100 µM in the test with IGROV1 ovarian; greater than 100 µM in the test with SW-620 colon; greater than 100 µM in the test with HCC-2998 colon; greater than 100 µM in the test with CAKI-1 renal; 42.5 µM with NCI-H522 lung. For the same molecule, the TGI in the test on MALME-3M melanoma was greater than 100 µM; with MOLT-4 leukemia, 55.3 µM.
In the case of `CCOC(=O)c1cccc(=O)c(C(=O)OCC)c1`, the TGI in the test on HCT-15 colon, in the test with IGROV1 ovarian, with SW-620 colon, in the test on HCC-2998 colon, in the test with CAKI-1 renal and with MALME-3M melanoma was greater than 100 µM in each case. Besides, the TGI with MOLT-4 leukemia was greater than 100 µM.
`CC(C)=CC(=O)CC(=O)C(=O)Nc1ccc(C)c(C)c1`: the TGI in the test on HCT-15 colon, in the test on IGROV1 ovarian, in the test with SW-620 colon, with CAKI-1 renal, in the test on NCI-H522 lung and in the test on MALME-3M melanoma was greater than 100 µM throughout. The molecule further displayed a TGI with MOLT-4 leukemia greater than 100 µM.
In the case of `CCOC(=O)Cc1c(Cc2[nH]c(C(=O)OCc3ccccc3)c(CC(=O)OCC)c2CC(=O)OCC)[nH]c(C(=O)OCc2ccccc2)c1CC(=O)OCC`, the TGI in the test on HCT-15 colon, in the test on IGROV1 ovarian, in the test on SW-620 colon, with CAKI-1 renal, in the test with NCI-H522 lung and in the test with MALME-3M melanoma was greater than 100 µM in each case. Also, in the test on MOLT-4 leukemia, the TGI is greater than 100 µM.
In the case of `CC1=COC(=O)c2ccccc2N1`, the TGI in the test on HCT-15 colon, with IGROV1 ovarian, with SW-620 colon, in the test on HCC-2998 colon, in the test with CAKI-1 renal and in the test on NCI-H522 lung was greater than 100 µM throughout. For the same molecule, the TGI with MALME-3M melanoma was greater than 100 µM.
`C=C(c1ccccc1N)[C@@]1(O)C[C@H](/C(=C\C)CO)C[C@@H]1NCc1ccccc1`: the TGI in the test on HCT-15 colon was greater than 100 µM; in the test on IGROV1 ovarian, greater than 100 µM; in the test with SW-620 colon, 50 µM; with HCC-2998 colon, 30.9 µM; with NCI-H522 lung, 33.4 µM; in the test with MALME-3M melanoma, 28.4 µM. In addition, in the test with MOLT-4 leukemia, the TGI is 39.7 µM.
`N#Cc1ccccc1NC(=O)C(=O)C(C(=O)c1ccccc1-c1ccccc1)C1OC(=O)c2ccccc21` (stereo unspecified): the TGI with IGROV1 ovarian amounted to 66.7 µM; with SW-620 colon, 75.5 µM; in the test with HCC-2998 colon, 29.2 µM; with NCI-H522 lung, 21 µM; in the test on MALME-3M melanoma, 26.8 µM; with MOLT-4 leukemia, 70 µM.
For the molecule `O=C(O)CN(c1ccc(Cl)cc1)S(=O)(=O)c1ccccc1`, the TGI with HCT-15 colon, with IGROV1 ovarian, in the test with SW-620 colon, with CAKI-1 renal, in the test with NCI-H522 lung and in the test with MALME-3M melanoma was greater than 100 µM throughout. Moreover, in the test with MOLT-4 leukemia, the TGI is greater than 100 µM.
`CCCCCCC(=O)C/C(CCC(=O)N(Cc1ccccc1)Cc1ccccc1)=N\Nc1ccc([N+](=O)[O-])cc1[N+](=O)[O-]`: the TGI in the test on HCT-15 colon, with IGROV1 ovarian, in the test on SW-620 colon, with HCC-2998 colon, in the test on CAKI-1 renal and in the test on NCI-H522 lung was greater than 100 µM in each case. In the test on MALME-3M melanoma, this molecule came in with a TGI greater than 100 µM.
`Cn1ncc2cc3c(Nc4ccc(Cl)cc4)cccc3nc21`: the TGI with HCT-15 colon came out at 37.5 µM; with IGROV1 ovarian, 38.8 µM; in the test on SW-620 colon, 48.8 µM; with HCC-2998 colon, 54.5 µM; in the test with CAKI-1 renal, 61.3 µM; in the test with MALME-3M melanoma, 56.3 µM. The molecule further came in with a TGI in the test with MOLT-4 leukemia of 36.3 µM.
Turning to `CC(Cl)(/C=C/Cl)C(Cl)/C=C/C(Cl)(CCl)CBr` (stereo unspecified), the TGI amounted to 4.24 µM with HCT-15 colon; 25.1 µM with IGROV1 ovarian; 8 µM in the test with SW-620 colon; 33.2 µM in the test on HCC-2998 colon; 28.1 µM with CAKI-1 renal; 3.33 µM in the test on NCI-H522 lung. Also, the TGI in the test on MALME-3M melanoma amounted to 13.7 µM; in the test on MOLT-4 leukemia it was 3.36 µM.
Take `O=C1C2=C(c3ccccc31)C(c1ccc(Cl)cc1)N1C(=O)CCSC1=N2` (stereo unspecified): the TGI in the test on HCT-15 colon, with IGROV1 ovarian, in the test with SW-620 colon, in the test on HCC-2998 colon, in the test with CAKI-1 renal and with NCI-H522 lung was greater than 100 µM throughout. The TGI with MALME-3M melanoma and with MOLT-4 leukemia was greater than 100 µM throughout.
Regarding `CC(=O)Oc1c(C)n(CCCl)ccc1=O`, the TGI with HCT-15 colon, in the test on CAKI-1 renal, in the test on NCI-H522 lung, in the test with MALME-3M melanoma and in the test on MOLT-4 leukemia was greater than 100 µM each time.
For `Cn1nc(-c2ccccc2NC(=O)C(F)(F)F)c(=O)n(C)c1=S`, the TGI was greater than 100 µM in the test with IGROV1 ovarian; greater than 100 µM with SW-620 colon; greater than 100 µM in the test on HCC-2998 colon; 89.4 µM in the test on CAKI-1 renal; 49.2 µM in the test with NCI-H522 lung; greater than 100 µM with MALME-3M melanoma. In addition, in the test on MOLT-4 leukemia, the TGI was greater than 100 µM.
